From patent US10370637B2, “Technology for sustaining pluripotency and improved growth of stem cells in culture” (The Regents of the University of California, priority 2015, dated 2019)
Like-named read-outs stand apart in the source and are kept apart here.

What was measured:
[1] = system: human embryonic stem cells (hESC)
Protocol: FIG. 2 is a panel showing that the addition of NaOc.3H2O to hPSC culture medium rescued human embryonic stem cell cultures, improved attachment/spreading, and decreased cell death. […] (2E) Comparison of hESC attachment in mTeSR1 or mTeSR1+10 mM NaOAc.3H2O, (2F) Spreading of colonies in mTeSR1 only is poor; colonies are elevated, not flat, (2G) Spreading of colonies in mTeSR1+10 mM NaOAc.3H2O is improved; colonies are flatter and spread faster. (2H-2M) StemCellQC™ time-lapse video bioinformatics analysis of colonies grown in mTeSR1 only or mTeSR1+10 mM NaOAc. Colonies cultured in mTeSR1+10 mM NaOAc grow faster (2H and 2I), are rounder (normal morphology) (2J), have better motility (2K and 2L), and have fewer dead cells (2M).
This is very important and may be a factor in preventing unwanted differentiation. FIGS. 2H-M show video bioinformatics analysis of live hESC growing in vitro. This analysis was done on time-lapse images of living cultures and allows quantitative comparison between cells grown in different media.

H9 hESC = settings: H9 colony from another lab, mTeSR1 + 10 mM NaOAc.3H2O, 24 hours
[2] = system: human embryonic stem cells (hESC); remark: listed apart in the source
Text: These are hallmarks of healthy pluripotent human embryonic stem cells (hESC) in culture. […] These are not normal pluripotent stem cell morphologies and are observed when colonies begin to differentiate.

hESC colonies = system: hESC colonies
Protocol: Colonies were incubated in mTeSR or mTeSR plus varying concentrations of NaOAc.3H2O.

hESC = settings: incubated in mTeSR plus NaOAc.3H2O, then transferred to differentiation medium
Protocol: (6A) Spontaneous differentiation of hESC incubated in mTeSR only then transferred to differentiation medium. […] (6B) hESC incubated in mTeSR plus NaOAc.3H2O, then transferred to differentiation medium.
These colonies were labeled with an antibody to Pax6, a marker for ectodermal differentiation.

hPSC colonies = settings: Essential-8 + 10 mM NaOAc.3H2O vs Essential-8 alone
[3] = mTeSR1 + 10 mM NaOAc vs mTeSR1 only

In the case of `CC(=O)[O-].O.O.O.[Na+]` [NaOAc.3H2O, sodium acetate trihydrate], the “brightness to area ratio (measurement of cell death)” value [1, 3] is reported as “low brightness to area ratio”, the cell death [1, 3] is reported as “Fewer cells died” and the colony motility [1, 3] is reported as “Motility was greater”. The growth rate [1, 3] was “much faster”, the “solidity (colony roundness)” value [1, 3] was “closer to 1” and the “spreading of hESC colonies on the substrate” value ([1]; mTeSR1 + 10 mM NaOAc.3H2O vs mTeSR1) was “spread faster on the substrate”. The “attachment of cells to their substrate” value ([1]; mTeSR1 + 10 mM NaOAc.3H2O vs mTeSR1, modest but significantly different) was “enhanced the attachment of cells to their substrate”, the colony morphology (H9 hESC) was “round morphology with smooth edges” and the colony morphology ([2]; mTeSR + 1 mM NaOAc.3H2O) was “little effect on colony morphology”. For the same compound, the colony morphology ([2]; mTeSR + 5 or 10 mM NaOAc.3H2O) was “colony morphology was restored to normal”, the “passages without differentiation of colonies” value ([2]; passaged in mTeSR with the NaOAc.3H2O supplement) was “over 20 times” and the “Oct 4 fluorescence, concentration comparison” value (hESC colonies; 10 μM concentration) was “Fluorescence was strongest”. The Oct4A staining (hESC colonies; mTeSR1 + 5 mM NaOAc) was “Positive Oct4A staining”, the Oct4A staining (hESC colonies; mTeSR1 + 10 mM NaOAc) was “Positive Oct4A staining” and the Sox2 staining (hESC colonies; mTeSR1 + 10 mM NaOAc) was “Positive Sox2 staining”. The “Oct 4 labeling (biomarker for pluripotency)” value (hESC colonies; mTeSR plus varying concentrations of NaOAc.3H2O) was “bright labeling of Oct 4”, the “Pax6 staining (ectodermal marker)” value (hESC) was “stained positively for Pax6” and the colony morphology (hPSC colonies) was “improved morphology”.
